This assay has as its target JAK1 (Homo sapiens (Human), UniProt P23458). Nature of the assay: Analysis of JAK1 activity inhibition ability (ADP-Glo Kinase Assay). In kind it is biochemical. Particulars: JAK1 enzyme, ADP-Glo luminescence, ATP 250 uM, IRS-itide substrate, 30° C. 40 minutes; read-out: IC50. In outline:
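ADP-Glo luminescence read-out of ADP production, with IC50 taken as the concentration halving JAK1 activity relative to control. Enzyme was incubated 40 min at 30 °C with compound, IRS-itide (40 ng/mL) and ATP (250 uM), concentrations as prepared in pH 7.5 Tris-HCl/MgCl2/BSA/DTT buffer.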
(ADP-Glo turns the ADP formed in a reaction into a luminescent signal.)

Sequence of JAK1 (P23458 whole entry): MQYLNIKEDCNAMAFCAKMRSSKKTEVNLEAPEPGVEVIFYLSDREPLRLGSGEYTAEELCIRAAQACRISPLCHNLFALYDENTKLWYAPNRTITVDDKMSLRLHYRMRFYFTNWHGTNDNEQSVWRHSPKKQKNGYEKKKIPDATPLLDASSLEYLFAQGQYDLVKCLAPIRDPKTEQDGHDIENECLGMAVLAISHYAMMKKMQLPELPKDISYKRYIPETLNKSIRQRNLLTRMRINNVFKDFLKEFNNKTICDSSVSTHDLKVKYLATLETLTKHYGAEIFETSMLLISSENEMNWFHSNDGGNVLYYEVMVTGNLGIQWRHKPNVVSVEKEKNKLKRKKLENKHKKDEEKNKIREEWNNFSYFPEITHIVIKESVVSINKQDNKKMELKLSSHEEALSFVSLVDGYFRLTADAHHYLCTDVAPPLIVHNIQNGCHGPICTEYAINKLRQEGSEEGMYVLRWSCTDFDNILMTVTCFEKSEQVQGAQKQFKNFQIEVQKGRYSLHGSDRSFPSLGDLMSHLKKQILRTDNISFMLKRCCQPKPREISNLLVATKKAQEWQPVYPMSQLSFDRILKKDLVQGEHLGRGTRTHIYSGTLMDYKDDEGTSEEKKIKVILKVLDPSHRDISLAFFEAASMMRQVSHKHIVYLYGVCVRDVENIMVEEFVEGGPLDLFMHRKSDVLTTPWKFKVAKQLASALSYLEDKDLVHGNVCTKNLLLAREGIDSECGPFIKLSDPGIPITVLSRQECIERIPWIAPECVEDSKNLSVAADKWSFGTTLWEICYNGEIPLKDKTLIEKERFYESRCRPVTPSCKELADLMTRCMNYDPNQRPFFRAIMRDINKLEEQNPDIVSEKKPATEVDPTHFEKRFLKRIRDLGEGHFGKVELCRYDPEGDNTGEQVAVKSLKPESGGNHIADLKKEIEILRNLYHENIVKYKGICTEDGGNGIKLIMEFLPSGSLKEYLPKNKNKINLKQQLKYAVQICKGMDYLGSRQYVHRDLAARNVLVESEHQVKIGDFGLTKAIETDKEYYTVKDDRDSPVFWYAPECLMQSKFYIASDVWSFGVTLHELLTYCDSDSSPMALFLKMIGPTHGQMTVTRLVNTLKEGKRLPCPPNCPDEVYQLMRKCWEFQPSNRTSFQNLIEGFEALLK

`CCC1CN(C(=O)CC#N)CC=C1c1cc(NC(=O)C2CC2)nc2[nH]ccc12` (stereo not shown) [Example 294, N-(4-(1-(2-cyanoacetyl)-3-ethyl-1,2,3,6-tetrahydropyridin-4-yl)-1H-pyrrolo[2,3-b]pyridin-6-yl)cyclopropanecarboxamide]: the IC50 is less than 20 nM. The result for `CCC1CN(C(=O)CCC#N)CC=C1c1cc(NC(=O)C2CC2)nc2[nH]ccc12` (stereo not shown) [Example 295, N-(4-(1-(3-cyanopropanoyl)-3-ethyl-1,2,3,6-tetrahydropyridin-4-yl)-1H-pyrrolo[2,3-b]pyridin-6-yl)cyclopropanecarboxamide] reads less than 20 nM; that for `CC1=C(c2cc(NC(=O)C3CC3)nc3[nH]ccc23)CCN(C(=O)CC#N)C1` [Example 296, N-(4-(1-(2-cyanoacetyl)-5-methyl-1,2,3,6-tetrahydropyridin-4-yl)-1H-pyrrolo[2,3-b]pyridin-6-yl)cyclopropanecarboxamide], 20 to 200 nM; that for `O=C(Nc1cc(C2=CCN(C(=O)CCl)CC2)c2cc[nH]c2n1)C1CC1` [Example 298, N-(4-(1-(2-chloroacetyl)-1,2,3,6-tetrahydropyridin-4-yl)-1H-pyrrolo[2,3-b]pyridin-6-yl)cyclopropanecarboxamide], 20 to 200 nM. With `CC1(C)CN(C(=O)CC#N)CC=C1c1cc(NC(=O)C2CC2)nc2[nH]ccc12` [Example 299, N-(4-(1-(2-cyanoacetyl)-3,3-dimethyl-1,2,3,6-tetrahydropyridin-4-yl)-1H-pyrrolo[2,3-b]pyridin-6-yl)cyclopropanecarboxamide], the IC50 lay within 20 to 200 nM.

Consider `CC1(C)CN(C(=O)CCC#N)CC=C1c1cc(NC(=O)C2CC2)nc2[nH]ccc12` [Example 300, N-(4-(1-(3-cyanopropanoyl)-3,3-dimethyl-1,2,3,6-tetrahydropyridin-4-yl)-1H-pyrrolo[2,3-b]pyridin-6-yl)cyclopropanecarboxamide], for which the IC50 lay within 20 to 200 nM. The result for `N#CCC(=O)N1CC=C(c2cc(NC(=O)c3ccco3)nc3[nH]ccc23)CC1` [Example 301, N-(4-(1-(2-cyanoacetyl)-1,2,3,6-tetrahydropyridin-4-yl)-1H-pyrrolo[2,3-b]pyridin-6-yl)furan-2-carboxamide] reads greater than 200 nM; that for `N#CCCC(=O)N1CC=C(c2cc(NC(=O)C3CC3)nc3[nH]ccc23)C2(CC2)C1` [Example 302, N-(4-(5-(3-cyanopropanoyl)-5-azaspiro[2.5]oct-7-en-8-yl)-1H-pyrrolo[2,3-b]pyridin-6-yl)cyclopropanecarboxamide], 20 to 200 nM; that for `N#CCC(=O)N1CC=C(c2cc(NC(=O)C3CC3)nc3[nH]ccc23)C2(CC2)C1` [Example 303, N-(4-(5-(2-cyanoacetyl)-5-azaspiro[2.5]oct-7-en-8-yl)-1H-pyrrolo[2,3-b]pyridin-6-yl)cyclopropanecarboxamide], less than 20 nM.

Regarding `C[C@@H]1CN(C(=O)CC#N)CC=C1c1cc(NC(=O)C2CC2)nc2[nH]ccc12` [Example 304, (S)—N-(4-(1-(2-cyanoacetyl)-3-methyl-1,2,3,6-tetrahydropyridin-4-yl)-1H-pyrrolo[2,3-b]pyridin-6-yl)cyclopropanecarboxamide], the IC50 is less than 20 nM. For `Cc1ncc(C(=O)N2CC=C(c3cc(NC(=O)C4CC4)nc4[nH]ccc34)C(C)C2)s1` (stereo not shown) [Example 306, N-(4-(3-methyl-1-(2-methylthiazole-5-carbonyl)-1,2,3,6-tetrahydropyridin-4-yl)-1H-pyrrolo[2,3-b]pyridin-6-yl)cyclopropanecarboxamide] the value was 20 to 200 nM. The result for `Cc1nc(C)c(C(=O)N2CC=C(c3cc(NC(=O)C4CC4)nc4[nH]ccc34)C(C)C2)s1` (stereo not shown) [Example 307, N-(4-(1-(2,4-dimethylthiazole-5-carbonyl)-3-methyl-1,2,3,6-tetrahydropyridin-4-yl)-1H-pyrrolo[2,3-b]pyridin-6-yl)cyclopropanecarboxamide] reads greater than 200 nM; that for `Cc1ncsc1C(=O)N1CC=C(c2cc(NC(=O)C3CC3)nc3[nH]ccc23)C(C)C1` (stereo not shown) [Example 308, N-(4-(3-methyl-1-(4-methylthiazole-5-carbonyl)-1,2,3,6-tetrahydropyridin-4-yl)-1H-pyrrolo[2,3-b]pyridin-6-yl)cyclopropanecarboxamide], 20 to 200 nM. As for `CC1CN(C(=O)c2ccnc(F)c2)CC=C1c1cc(NC(=O)C2CC2)nc2[nH]ccc12` (stereo not shown) [Example 309, N-(4-(1-(2-fluoroisonicotinoyl)-3-methyl-1,2,3,6-tetrahydropyridin-4-yl)-1H-pyrrolo[2,3-b]pyridin-6-yl)cyclopropanecarboxamide], the IC50 is less than 20 nM. The result for `CC1CN(C(=O)c2ccnc(Cl)c2)CC=C1c1cc(NC(=O)C2CC2)nc2[nH]ccc12` (stereo not shown) [Example 310, N-(4-(1-(2-chloroisonicotinoyl)-3-methyl-1,2,3,6-tetrahydropyridin-4-yl)-1H-pyrrolo[2,3-b]pyridin-6-yl)cyclopropanecarboxamide] reads less than 20 nM. Consider `CC1CN(C(=O)c2ccc(F)c(F)c2)CC=C1c1cc(NC(=O)C2CC2)nc2[nH]ccc12` (stereo not shown) [Example 311, N-(4-(1-(3,4-difluorobenzoyl)-3-methyl-1,2,3,6-tetrahydropyridin-4-yl)-1H-pyrrolo[2,3-b]pyridin-6-yl)cyclopropanecarboxamide], for which the IC50 fell in the range of 20 to 200 nM. With `COc1ccc(C(=O)N2CC=C(c3cc(NC(=O)C4CC4)nc4[nH]ccc34)C(C)C2)cc1F` (stereo not shown) [Example 312, N-(4-(1-(3-fluoro-4-methoxybenzoyl)-3-methyl-1,2,3,6-tetrahydropyridin-4-yl)-1H-pyrrolo[2,3-b]pyridin-6-yl)cyclopropanecarboxamide], the IC50 is 20 to 200 nM. For the compound `CC1CN(C(=O)c2ccc[nH]2)CC=C1c1cc(NC(=O)C2CC2)nc2[nH]ccc12` (stereo not shown) [Example 313, N-(4-(3-methyl-1-(1H-pyrrole-2-carbonyl)-1,2,3,6-tetrahydropyridin-4-yl)-1H-pyrrolo[2,3-b]pyridin-6-yl)cyclopropanecarboxamide], the IC50 was 20 to 200 nM. For `CC1CN(C(=O)c2ccncc2F)CC=C1c1cc(NC(=O)C2CC2)nc2[nH]ccc12` (stereo not shown) [Example 314, N-(4-(1-(3-fluoroisonicotinoyl)-3-methyl-1,2,3,6-tetrahydropyridin-4-yl)-1H-pyrrolo[2,3-b]pyridin-6-yl)cyclopropanecarboxamide] the value was 20 to 200 nM; for `CC1CN(C(=O)c2cccc(CCN3C(=O)COCC3=O)c2)CC=C1c1cc(NC(=O)C2CC2)nc2[nH]ccc12` (stereo not shown) [Example 315, N-(4-(1-(3-(2-(3,5-dioxomorpholino)ethyl)benzoyl)-3-methyl-1,2,3,6-tetrahydropyridin-4-yl)-1H-pyrrolo[2,3-b]pyridin-6-yl)cyclopropanecarboxamide], greater than 200 nM; for `CC1CN(C(=O)c2cccc(Nc3ccccc3)c2)CC=C1c1cc(NC(=O)C2CC2)nc2[nH]ccc12` (stereo not shown) [Example 316, N-(4-(3-methyl-1-(3-(phenylamino)benzoyl)-1,2,3,6-tetrahydropyridin-4-yl)-1H-pyrrolo[2,3-b]pyridin-6-yl)cyclopropanecarboxamide], greater than 200 nM. In the case of `CC1CN(C(=O)c2ccc(-c3ccc(F)cc3F)[nH]c2=O)CC=C1c1cc(NC(=O)C2CC2)nc2[nH]ccc12` (stereo not shown) [Example 317, N-(4-(1-(6-(2,4-difluorophenyl)-2-oxo-1,2-dihydropyridine-3-carbonyl)-3-methyl-1,2,3,6-tetrahydropyridin-4-yl)-1H-pyrrolo[2,3-b]pyridin-6-yl)cyclopropanecarboxamide], the IC50 was greater than 200 nM. The result for `COC(=O)C1(C(=O)N2CC=C(c3cc(NC(=O)C4CC4)nc4[nH]ccc34)C(C)C2)CCC1` (stereo not shown) [Example 318, methyl 1-(4-(6-(cyclopropanecarboxamido)-1H-pyrrolo[2,3-b]pyridin-4-yl)-3-methyl-1,2,3,6-tetrahydropyridine-1-carbonyl)cyclobutane-1-carboxylate] reads greater than 200 nM. As to `COC(=O)C1(C(=O)N2CC=C(c3cc(NC(=O)C4CC4)nc4[nH]ccc34)C(C)C2)CC1` (stereo not shown) [Example 319, methyl 1-(4-(6-(cyclopropanecarboxamido)-1H-pyrrolo[2,3-b]pyridin-4-yl)-3-methyl-1,2,3,6-tetrahydropyridine-1-carbonyl)cyclopropane-1-carboxylate], the IC50 was greater than 200 nM.

Regarding `COC(=O)C(C)C(=O)N1CC=C(c2cc(NC(=O)C3CC3)nc3[nH]ccc23)C(C)C1` (stereo not shown) [Example 320, methyl 3-(4-(6-(cyclopropanecarboxamido)-1H-pyrrolo[2,3-b]pyridin-4-yl)-3-methyl-3,6-dihydropyridin-1 (2H)-yl)-2-methyl-3-oxopropanoate], the IC50 is greater than 200 nM. With `CC1CN(C(=O)c2ccc(C(C)(C)C)[nH]c2=O)CC=C1c1cc(NC(=O)C2CC2)nc2[nH]ccc12` (stereo not shown) [Example 321, N-(4-(1-(6-(tert-butyl)-2-oxo-1,2-dihydropyridine-3-carbonyl)-3-methyl-1,2,3,6-tetrahydropyridin-4-yl)-1H-pyrrolo[2,3-b]pyridin-6-yl)cyclopropanecarboxamide], the IC50 is greater than 200 nM. With `CC1CN(C(=O)c2ccc(-c3ccc(F)cc3)[nH]c2=O)CC=C1c1cc(NC(=O)C2CC2)nc2[nH]ccc12` (stereo not shown) [Example 322, N-(4-(1-(6-(4-fluorophenyl)-2-oxo-1,2-dihydropyridine-3-carbonyl)-3-methyl-1,2,3,6-tetrahydropyridin-4-yl)-1H-pyrrolo[2,3-b]pyridin-6-yl)cyclopropanecarboxamide], the IC50 was greater than 200 nM.

Take `CC1CN(C(=O)c2ccc(NCCN3CCOCC3)c(F)c2)CC=C1c1cc(NC(=O)C2CC2)nc2[nH]ccc12` (stereo not shown) [Example 323, N-(4-(1-(3-fluoro-4-((2-morpholinoethyl)amino)benzoyl)-3-methyl-1,2,3,6-tetrahydropyridin-4-yl)-1H-pyrrolo[2,3-b]pyridin-6-yl)cyclopropanecarboxamide]: the IC50 is greater than 200 nM.

The term IC50 denotes the point on the concentration scale where inhibition reaches its midpoint.

The record behind these values is US11524968B2, “Heterocyclic compound as a protein kinase inhibitor” (HK inno.N Corporation, priority 2017, dated 2022).
